Test results published in patent publication US20100311782A1, “SUBSTITUTED PIPERIDINYLPROPANOIC ACID COMPOUNDS AND METHODS OF THEIR USE” (priority 2009, published 2010).
Where “and” joins values, the source holds several entries; their conditions need not be identical. Identical values can stand only once. Counter-ions that a name gives are not always drawn. Like-named read-outs stand apart in the source and are kept apart here.

Assays:
[1] = target: T1, cloned human δ opioid receptor (Homo sapiens, UniProt P41143); assay: Receptor binding, [3H]diprenorphine displacement, delta opioid receptor
T1 construct: expressed in transfected cells

[2] = target: T2, cloned human μ opioid receptor (Homo sapiens, UniProt P35372); assay: Receptor binding, [3H]diprenorphine displacement, mu opioid receptor; conditions: for Ki: [3H]diprenorphine, cloned human mu opioid receptor; for DOR/MOR Ratio: ratio of DOR Ki to MOR Ki
T2 construct: expressed in transfected cells

[3] = test system: morphine-slowed gastrointestinal transit (GIT); assay: Mouse Gastrointestinal Transit (GIT) Assay, antagonism of the anti-transit effect of morphine; format: in vivo, mice; conditions: for recovery of the pre-opioid treatment efficacy of GIT: one hour after a 3 mg/kg dose, morphine 3 mg/kg s.c.
Experimental: Male Swiss-Webster mice (25-30 g) obtained from Ace Animals (Boyertown, Pa.) were used for all experiments. Mice were housed 4/cage in polycarbonate cages with food and water available ad libitum. Mice were on a 12 hours light:dark schedule with lights on at 6:30 a.m. All experiments were performed during the light cycle. Mice were fasted the night before the experiment, with water available ad libitum.
Compounds were administered in a volume of 0.1 ml/10 g of body weight. Morphine (3 mg/kg) or vehicle (0.9% saline) was administered s.c. 35 min to induce slowed GIT, prior to determination of GIT. Ten minutes after the morphine treatment, mice were administered 0.2 ml of a charcoal meal orally. The charcoal meal consisted of a slurry of charcoal, flour, and water in the following ratio (1:2:8, w:w:v). Twenty-five minutes after receiving the charcoal meal, the mice were euthanized with CO2 and GIT was determined.
GIT is expressed as % GIT by the following formula: […]
For each test agent, a value for % Antagonism (% A) was determined for the 2 and 6 hr antagonist pretreatment. Using the mean % GIT for each treatment group, % A was calculated using the following formula: […]

[4] = Dog PK; format: in vivo; conditions: for AUC0-t: 6 mg/kg, individual dogs; for bioavailability: single PO dose of 6 mg/kg, read-out: oral bioavailability (F); for AUC: mean of three dogs
Experimental: The PO dose formulations were prepared on the day of dosing by dissolving 33.16 mg of test material in 60 mL of sterile water to achieve a concentration of 0.5526 mg/mL total compound (0.5 mg/mL test compound). The dosing solution was vortexed to ensure homogeneity and dissolution.
The dose formulation was administered via oral gavage per facility SOPs. Each dog received a single PO dose of 6 mg/kg.
(§1) All blood samples were collected from a peripheral vessel. Approximately 0.3 mL blood was collected at each time point. All blood samples were placed on wet ice until processed for plasma.
Blood samples were processed for plasma by centrifugation at approximately 5° C. Plasma samples were stored in polypropylene tubes, quick frozen over dry ice and kept at −70±10° C. until LC/MSMS analysis.
(§2) Plasma concentrations were determined by high performance liquid chromatography with tandem mass spectrometric detection (LC/MS/MS) after protein precipitation.
(§3) Plasma concentration versus time data was analyzed by non-compartmental approaches using the WinNonlin software program (version 5.0.1, Pharsight, Mountain View, Calif.).

[5] = Primate PK; format: in vivo, monkey; conditions: for AUC0-t / Cmax: 1 mg/kg; for bioavailability: single PO dose of 1 mg/kg, read-out: oral bioavailability (F)
Experimental: The dose formulations were prepared on the day of dosing by dissolving 33.16 mg of test material in 60 mL of sterile water to achieve a concentration of 0.5526 mg/mL total compound (0.5 mg/mL test compound). The dosing solution was vortexed to ensure homogeneity and dissolution.
The dose formulation was administered via oral gavage per facility SOPs. Each monkey received a single PO dose of 1 mg/kg as a 0.5% MC suspension.
as §1
Blood samples were processed for plasma by centrifugation at approximately 5° C. Plasma samples were be stored in polypropylene tubes, quick frozen over dry ice and kept at −70±10° C. until LC/MSMS analysis.
as §2, §3

[6] = target: T3, cloned human κ opioid receptor (Homo sapiens, UniProt P41145); assay: Receptor binding, [3H]diprenorphine displacement, kappa opioid receptor
T3 construct: expressed in transfected cells

[7] = Rat PK; format: in vivo; conditions: rats; for bioavailability: male, Sprague-Dawley, rat, plasma, read-out: oral bioavailability (F)
Experimental: Jugular vein cannulated (JVC) male Sprague-Dawley (SD) rats (Charles River, Raleigh, N.C.) were housed individually in polycarbonate cages on alpha-dri bedding in an environmentally controlled room with a 12 hour light-dark cycle. Rats were allowed to acclimate for 3-5 days prior to the study. Animals were fasted overnight prior to drug administration and were fed after the 4 h blood collection.
The suspension used for PO administration was prepared at a nominal concentration of 2 mg/mL of test agent in 0.5% methylcellulose with 0.1% Tween®80.
Two groups of three JVC rats each received a single PO dose of 10 mg/kg. The PO dose was administered by oral gavage in a dosing volume of 5 mL/kg. Blood samples (0.6 mL) were collected via jugular vein cannula at predose, 15 and 30 minutes and 1, 2, 4, 6, 8 and 24 h postdose in EDTA-containing tubes. Plasma was obtained by centrifugation at 3000 rpm for 15 minutes. The samples were stored at −20° C. until analysis.
Plasma aliquots were deproteinized with internal standard solution in acetonitrile. The samples were vortexed, centrifuged and an aliquot of the supernatant was mixed with water. The diluted aliquot was then analyzed.
as §2
Model-independent analyses were performed to evaluate the pharmacokinetics. The area under the concentration-time curve (AUC) and the area under the first moment curve (AUMC) were calculated from zero to 6 or 8 hours post-dose using the linear trapezoidal method with extrapolation to infinity. The terminal elimination rate constant (kel) and half-life (t1/2) were calculated by linear least-squares regression of log-transformed concentration-time data. Systemic plasma clearance (CLs) was computed from Dose/AUC. Volume of distribution at steady state (Vdss) was calculated from Dose·AUMC/AUC^2. WinNonlin® Professional software (Pharsight Corporation) was used to generate all pharmacokinetic data.

[8] = individual monkeys, PO 1 mg/kg, lithium salt
[9] = [3H]diprenorphine, cloned human kappa opioid receptor, read-out: KOR Ki

T2 sequence (P35372 whole entry): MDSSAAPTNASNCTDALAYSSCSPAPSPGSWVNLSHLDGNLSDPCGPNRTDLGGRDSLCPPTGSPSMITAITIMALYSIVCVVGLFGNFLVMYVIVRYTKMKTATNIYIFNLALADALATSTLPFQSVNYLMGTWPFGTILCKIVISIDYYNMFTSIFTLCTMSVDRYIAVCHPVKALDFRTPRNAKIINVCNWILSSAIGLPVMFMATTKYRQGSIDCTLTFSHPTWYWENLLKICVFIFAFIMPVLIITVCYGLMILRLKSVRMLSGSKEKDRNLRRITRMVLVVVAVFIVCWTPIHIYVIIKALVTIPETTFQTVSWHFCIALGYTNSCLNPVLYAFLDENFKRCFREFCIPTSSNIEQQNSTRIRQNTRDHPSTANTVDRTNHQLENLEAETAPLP
T1 sequence (P41143 whole entry): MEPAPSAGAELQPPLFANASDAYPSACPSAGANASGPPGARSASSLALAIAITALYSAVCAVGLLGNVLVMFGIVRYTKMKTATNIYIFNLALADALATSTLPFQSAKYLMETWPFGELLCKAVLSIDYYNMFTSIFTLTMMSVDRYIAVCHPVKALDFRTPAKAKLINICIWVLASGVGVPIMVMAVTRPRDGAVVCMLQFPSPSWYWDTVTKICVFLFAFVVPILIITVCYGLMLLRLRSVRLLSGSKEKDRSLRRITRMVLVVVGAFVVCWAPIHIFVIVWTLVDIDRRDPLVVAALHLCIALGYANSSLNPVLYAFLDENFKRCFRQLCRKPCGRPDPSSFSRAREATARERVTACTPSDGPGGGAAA
T3 sequence (P41145 whole entry): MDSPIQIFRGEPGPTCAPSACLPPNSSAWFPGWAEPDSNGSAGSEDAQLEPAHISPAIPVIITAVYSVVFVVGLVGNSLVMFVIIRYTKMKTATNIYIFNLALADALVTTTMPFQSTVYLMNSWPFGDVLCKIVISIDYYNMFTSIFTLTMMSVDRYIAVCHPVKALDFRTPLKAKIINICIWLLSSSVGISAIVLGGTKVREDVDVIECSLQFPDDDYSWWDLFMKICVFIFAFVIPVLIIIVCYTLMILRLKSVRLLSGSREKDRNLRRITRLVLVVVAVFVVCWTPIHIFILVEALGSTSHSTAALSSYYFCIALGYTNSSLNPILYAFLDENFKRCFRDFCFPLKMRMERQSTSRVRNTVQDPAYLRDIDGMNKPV

Compound: C[C@H]1CN(C[C@H](Cc2ccccc2)C(=O)O)CC[C@@]1(C)c1cccc(C(N)=O)c1 [Example 6, (S)-2-benzyl-3-((3R,4R)-4-(3-carbamoylphenyl)-3,4-dimethylpiperidin-1-yl)propanoic acid, succinic acid salt]
- Ki ([1]; DOR Ki): 527 nM
- Ki ([2]; MOR Ki): 18.1 nM

Compound: C[C@H]1CN(C[C@H](Cc2ccccc2)C(=O)[O-])CC[C@@]1(C)c1cccc(C(N)=O)c1.[Li+] [Example 1, (S)-2-benzyl-3-((3R,4R)-4-(3-carbamoylphenyl)-3,4-dimethylpiperidin-1-yl)propanoic acid, lithium salt]
- Ki ([1]; DOR Ki): 340 nM
- AUC values (h * percent antagonism (0-6 h)) ([3]; mice, 3 mg/kg orally, 0-6 h): 408.8 h * percent antagonism
- recovery of the pre-opioid treatment efficacy of GIT ([3]; mice): ~90%
- AUC value (GIT antagonism) times greater than that of Example C-2 ([3]; mouse, in vivo): 2.1 times
- Ki ([2]; MOR Ki): 11.2 nM
- DOR/MOR Ratio [2]: 30
- AUC0-t ([4]; dog, in vivo, po, PO 6 mg/kg, read-out: AUC0-t): 183 ng·h/mL
- bioavailability ([4]; dog, in vivo, dogs): 30%
- AUC ([4]; dog, in vivo, PO 6 mg/kg): 259 ± 81 ng·h/mL
- improvement in the mean AUC value as compared to Example C-3 ([4]; dogs, PO 6 mg/kg): approximately 4 fold
- increase in mean concentration in plasma as compared to C-3 ([4]; dogs, PO 6 mg/kg): approximately 3 fold
- AUC0-t ([4]; PO 6 mg/kg, lithium salt): 250 ng·h/mL and 344 ng·h/mL
- AUC0-t [5, 8]: 87 ng·h/mL and 132 ng·h/mL
- Cmax [5, 8]: 29.5 ng/mL and 20.8 ng/mL and 44.6 ng/mL
- AUC0-t ([5]; monkey, in vivo, po, individual monkeys, PO 1 mg/kg, read-out: AUC0-t): 103 ng·h/mL
- Cmax ([5]; monkey, in vivo, po, mean of three monkeys, PO 1 mg/kg, read-out: Mean Cmax ± SD): 32 ± 12 ng/mL
- Cmax ([5]; monkey, in vivo, po, monkeys, PO 1 mg/kg, mean ± SD, text of b284, read-out: Cmax): 32 ± 12 ng/mL
- bioavailability ([5]; monkey, in vivo, monkeys): 10%
- fold higher maximum plasma concentration (Cmax) as compared to Example C-3 ([5]; monkeys, PO 1 mg/kg): 18.3 fold

Compound: C[C@H]1CN(C[C@@H](Cc2ccccc2)C(=O)NCC(=O)O)CC[C@@]1(C)c1cccc(C(N)=O)c1.O=C(O)C(F)(F)F [Example C-2, [[2(R)-[[4(R)-(3-Amidophenyl)-3(R),4-dimethyl-1-piperidinyl]methyl]-1-oxo-3-phenylpropyl]amino]acetic acid, trifluoromethylacetate salt, reference compound]
- Ki ([1]; read-out: DOR Ki): 85 nM
- recovery of the pre-opioid treatment efficacy of GIT ([3]; mice): 50%
- AUC values (h * percent antagonism (0-6 h)) ([3]; mouse, in vivo, po, 3 mg/kg): 191.5 h * percent antagonism
- times more potent than Example 1 as an MOR antagonist in the opioid receptor binding assay ([2]; C-2 versus Example 1, Table I): 4.3 times
- Ki ([2]; read-out: MOR Ki): 2.6 nM
- DOR/MOR Ratio [2]: 33
- Ki [6, 9]: 660 nM
- oral bioavailability (F) ([7]; single PO dose of 10 mg/kg): ~1%

Compound: CC1CN(CC(Cc2ccccc2)C(=O)NCC(=O)O)CCC1(C)c1cccc(C(N)=O)c1 [Example C-3, [[2(R)-[[4(R)-(3-Amidophenyl)-3(R),4-dimethyl-1-piperidinyl]methyl]-1-oxo-3-phenylpropyl]amino]acetic acid, sodium salt, reference compound]
- Ki ([1]; DOR Ki): 98 nM
- Ki ([2]; MOR Ki): 2.9 nM
- DOR/MOR Ratio [2]: 34
- Ki [6, 9]: 930 nM
- AUC0-t ([4]; dog, plasma, po, PO 6 mg/kg, read-out: AUC0-t): 81 ng·h/mL
- bioavailability ([4]; dog, plasma, dogs): 11%
- AUC ([4]; dog, plasma, PO 6 mg/kg): 63 ± 16 ng·h/mL
- AUC0-t ([4]; PO 6 mg/kg, sodium salt): 54 ng·h/mL and 53 ng·h/mL
- Cmax ([5]; individual monkeys, PO 1 mg/kg, sodium salt): 1.81 ng/mL and 1.74 ng/mL
- Cmax ([5]; monkey, plasma, po, individual monkeys, PO 1 mg/kg, read-out: Cmax): 1.7 ng/mL
- Cmax ([5]; monkey, plasma, po, mean of three monkeys, PO 1 mg/kg, read-out: Mean Cmax ± SD): 1.75 ± 0.06 ng/mL
- bioavailability ([5]; monkey, plasma, monkeys): < 2%

Compound: C[C@H]1CN(C[C@H](Cc2ccccc2)C(=O)[O-])CC[C@@]1(C)c1cccc(C(N)=O)c1.[Na+] [Example 2, (S)-2-benzyl-3-((3R,4R)-4-(3-carbamoylphenyl)-3,4-dimethylpiperidin-1-yl)propanoic acid, sodium salt]
- Ki ([1]; DOR Ki): 308 nM
- Ki ([2]; MOR Ki): 17.3 nM
- DOR/MOR Ratio [2]: 18
- bioavailability ([7]; single PO dose of 10 mg/kg): 11%

Compound: C[C@H]1CN(C[C@H](Cc2ccccc2)C(=O)O)CC[C@@]1(C)c1cccc(C(N)=O)c1 [Example 4, (S)-2-Benzyl-3-((3R,4R)-4-(3-carbamoylphenyl)-3,4-dimethylpiperidin-1-yl)propanoic acid]
- Ki ([1]; DOR Ki): 460 nM
- Ki ([2]; MOR Ki): 14 nM
- DOR/MOR Ratio [2]: 33

Compound: C[C@H]1CN(C[C@H](Cc2ccccc2)C(=O)O)CC[C@@]1(C)c1cccc(C(N)=O)c1 [Example 5, (S)-2-benzyl-3-((3R,4R)-4-(3-carbamoylphenyl)-3,4-dimethylpiperidin-1-yl)propanoic acid, oxalic acid salt]
- Ki ([1]; DOR Ki): 310 nM
- Ki ([2]; MOR Ki): 16.9 nM
- Ki [6]: > 10000 nM

Compound: C[C@H]1CN(C[C@H](Cc2ccccc2)C(=O)O)CC[C@@]1(C)c1cccc(C(N)=O)c1.O=C(O)C(F)(F)F [Example 3, (S)-2-benzyl-3-((3R,4R)-4-(3-carbamoylphenyl)-3,4-dimethylpiperidin-1-yl)propanoic acid, trifluoroacetate salt]
- Ki ([1]; DOR Ki): 397 nM
- Ki ([2]; MOR Ki): 12.4 nM
- DOR/MOR Ratio [2]: 32
- bioavailability ([7]; single PO dose of 10 mg/kg): 8%
- improvement in oral bioavailability as compared to Example C-2 ([7]; PO 10 mg/kg): approximately 8 fold
